Compound: O=C(/C=C/c1ccccc1)NC(NC(=S)Nc1cccc2cccnc12)C(Cl)(Cl)Cl [Salubrinal] + O=C(c1cc(Cc2n[nH]c(=O)c3ccccc23)ccc1F)N1CCN(C(=O)C2CC2)CC1 [Olaparib] (partner 8 µM)
Assay: relative viability (nuclei count vs DMSO), 5 days (fraction); higher = more cells survive
Details: first compound 0.08 µM
How it was run: (§1)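 Relative viability equals treated-well nuclei counts divided by vehicle-well nuclei counts. Counts came from 4× images of lung cancer cell lines grown in 1536-well plates for 5 days after pin-tool dosing on the day after seeding. Dosing used one drug alone or a fixed anchor-drug dose plus five library-drug doses (not always all listed) in √10 steps, and values are medians of duplicate plates.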

Row | Cell Line | relative viability
1 | LC-2-ad | 0.677
2 | NCI-H1648 | 0.751
3 | NCI-H1975 | 0.926
4 | RERF-LC-KJ | 0.901
5 | ABC-1 | 0.831
6 | NCI-H1944 | 0.435
7 | NCI-H650 | 0.438
8 | PC-3 [JPC-3] | 1.16

Same assay, conditions: first compound 0.253 µM

Row | Cell Line | relative viability
9 | LC-2-ad | 0.708
10 | NCI-H1648 | 1.03
11 | NCI-H1975 | 0.59
12 | RERF-LC-KJ | 0.838
13 | ABC-1 | 0.67
14 | NCI-H1944 | 0.478
15 | NCI-H650 | 0.45
16 | PC-3 [JPC-3] | 0.567

Same assay, conditions: first compound 0.8 µM

Row | Cell Line | relative viability
17 | LC-2-ad | 0.729
18 | NCI-H1648 | 0.476
19 | NCI-H1975 | 0.777
20 | RERF-LC-KJ | 0.996
21 | ABC-1 | 0.741
22 | NCI-H1944 | 0.461
23 | NCI-H650 | 0.474
24 | PC-3 [JPC-3] | 1.23

Same assay, conditions: first compound 2.53 µM

Row | Cell Line | relative viability
25 | LC-2-ad | 0.728
26 | NCI-H1648 | 1.02
27 | NCI-H1975 | 0.769
28 | RERF-LC-KJ | 0.753
29 | ABC-1 | 0.633
30 | NCI-H1944 | 0.431
31 | NCI-H650 | 0.385
32 | PC-3 [JPC-3] | 1.1

Same assay, conditions: first compound 8 µM

Row | Cell Line | relative viability
33 | LC-2-ad | 0.709
34 | NCI-H1648 | 0.594
35 | NCI-H1975 | 0.613
36 | RERF-LC-KJ | 0.951
37 | ABC-1 | 0.8
38 | NCI-H1944 | 0.417
39 | NCI-H650 | 0.381
40 | PC-3 [JPC-3] | 1.09

Compound: O=C(/C=C/c1ccccc1)NC(NC(=S)Nc1cccc2cccnc12)C(Cl)(Cl)Cl [Salubrinal] + CC(=O)c1c(C)c2cnc(Nc3ccc(N4CCNCC4)cn3)nc2n(C2CCCC2)c1=O [Palbociclib] (partner 0.5 µM)
Assay: as above
Details: first compound 0.08 µM
How it was run: as §1

Row | Cell Line | relative viability
41 | LC-2-ad | 0.499
42 | NCI-H1648 | 0.255
43 | NCI-H1975 | 0.473
44 | RERF-LC-KJ | 1.14
45 | ABC-1 | 0.692
46 | NCI-H1944 | 0.394
47 | NCI-H650 | 0.346
48 | PC-3 [JPC-3] | 0.514

Same assay, conditions: first compound 0.253 µM

Row | Cell Line | relative viability
49 | LC-2-ad | 0.403
50 | NCI-H1648 | 0.258
51 | NCI-H1975 | 0.424
52 | RERF-LC-KJ | 1.04
53 | ABC-1 | 0.576
54 | NCI-H1944 | 0.372
55 | NCI-H650 | 0.3
56 | PC-3 [JPC-3] | 0.579

Same assay, conditions: first compound 0.8 µM

Row | Cell Line | relative viability
57 | LC-2-ad | 0.586
58 | NCI-H1648 | 0.252
59 | NCI-H1975 | 0.675
60 | RERF-LC-KJ | 1.13
61 | ABC-1 | 0.836
62 | NCI-H1944 | 0.315
63 | NCI-H650 | 0.355
64 | PC-3 [JPC-3] | 0.539

Same assay, conditions: first compound 2.53 µM

Row | Cell Line | relative viability
65 | LC-2-ad | 0.478
66 | NCI-H1648 | 0.22
67 | NCI-H1975 | 0.717
68 | RERF-LC-KJ | 1.09
69 | ABC-1 | 0.547
70 | NCI-H1944 | 0.299
71 | NCI-H650 | 0.332
72 | PC-3 [JPC-3] | 0.28

Same assay, conditions: first compound 8 µM

Row | Cell Line | relative viability
73 | LC-2-ad | 0.403
74 | NCI-H1648 | 0.236
75 | NCI-H1975 | 0.567
76 | RERF-LC-KJ | 0.964
77 | ABC-1 | 0.664
78 | NCI-H1944 | 0.337
79 | NCI-H650 | 0.298
80 | PC-3 [JPC-3] | 0.629

Reference: the supplement of paper PMC10307832
